# From US20220257595A1, “MACITENTAN FOR USE IN TREATING PORTOPULMONARY HYPERTENSION” (ACTELION PHARMACEUTICALS LTD, priority 2019, published 2022)
# Columns and labels:
# [1] = Phase 1, chronic hepatic impairment, varying grades of liver disease severity; cited from earlier work
# [2] = system: patients with PoPH; experiment: PORTICO: 6-minute walk test (6MWD); format: in vivo, human
# Procedure: (iv) 6-minute walk test, including Borg dyspnea index: The 6MWT was performed at Screening, Baseline (Visit 2/Randomization), and then every Visit until EOT-DB or EOT-OL, whichever came last. It is a non-encouraged test that measures the distance walked by the patient in six minutes. It is important that for each individual patient the 6MWT was conducted under the same conditions throughout the study (e.g., same location, same tester, same time of day, with or without nasal oxygen therapy and where applicable with same flow rate as Baseline). The Borg dyspnea index was evaluated after each 6MWT. It rates dyspnea on a scale from 0 to 10.
# Handling of missing data: For change from baseline to Weeks 4, 8 and 12 in 6MWD and WHO FC, the last available value (including baseline) was carried forward unless the patient died before, or on Day 42, 70, 98 (the upper limit treatment days of Weeks 4, 8 and 12 windows, respectively), in which case the following rules considering worst case were used to replace all the missing values from the week after death up to Week 12: • For 6MWD, worst fixed value was set to 0, • For WHO FC, worst fixed value was set to class IV, • For change from baseline to Week 12 in NT-proBNP, the same imputation rule as for PVR was applied as described herein.
# Statistical analysis: The change from baseline to Week 12 in mRAP, mPAP, cardiac index, TPR and SVO2 were analyzed on the FAS (with imputation) using an ANCOVA with factors for treatment group, background PAH-specific therapy at baseline (Yes/No as per IXRS, randomization stratification factor), region (Europe/North America/Latin America as per IXRS, randomization stratification factor) and a covariate for baseline corresponding variable. Other RHC variables are listed only. WHO FC is summarized on the FAS (with imputation) by time point and treatment group using frequency tables. Changes from baseline in WHO FC were dichotomized as worsening (i.e., change >0) versus no change or improvement (i.e., change ≤0). Worsening was analyzed using a logistic regression model (exact) with covariates for treatment group, background PAH-specific therapy at baseline (Yes/No as per IXRS, randomization stratification factor) and region (Europe/North America/Latin America as per IXRS, randomization stratification factor). 6MWD is summarized on the FAS (with imputation) by time point and treatment group using descriptive statistics. Change from baseline to each time point is summarized similarly. Change from baseline in 6MWD (up to Week 12) was analyzed using a mixed-effect model repeated measure (MMRM) with factors for treatment group, time point, treatment by time interaction, background PAH-specific therapy at baseline (Yes/No as per IXRS, randomization stratification factor) and region (Europe/North America/Latin America as per IXRS, randomization stratification factor), and covariates for baseline 6MWD and WHO FC. An unstructured covariance matrix was used to account for the correlation between repeated measurements from the same patient. NT-proBNP is summarized on the FAS (with imputation) by time point and treatment group using descriptive statistics as well as geometric means and CVs. The ratio of Week 12 to baseline NT-proBNP is summarized similarly. The ratio versus baseline in NT-proBNP was log-transformed and analyzed using an ANCOVA with covariates for treatment group, background PAH-specific therapy at baseline (Yes/No as per IXRS, randomization stratification factor), region (Europe/North America/Latin America as per IXRS, randomization stratification factor) and baseline log NT-proBNP.
# Supportive/sensitivity analyses: The main MMRM model analysis for 6MWD was also performed without stratification factors. […]
# [3] = 10 mg o.d., FAS with imputation, N=43
# [4] = MTS without imputation, macitentan in both DB and OL periods
# [5] = MTS without imputation, macitentan only in OL period (DB placebo patients)
compound,measurement,setting,value
"CCCNS(=O)(=O)Nc1ncnc(OCCOc2ncc(Br)cn2)c1-c1ccc(Br)cc1 [macitentan, N-[5-(4-Bromophenyl)-6-[2-[(5-bromo-2-pyrimidinyl)oxy]ethoxy]-4-pyrimidinyl]-N′-propylsulfamide]",Change in PK of macitentan and its metabolites in hepatic impairment,[1],no clinically relevant change
same,"6MWD at Week 4, mean ± SD",[2]; [3],392.5 ± 93.74 m
same,"6MWD at Week 8, mean ± SD",[2]; [3],390.3 ± 99.35 m
same,"6MWD at Week 12, mean ± SD",[2]; [3],392.2 ± 98.46 m
same,"Change from baseline to Week 4 in 6MWD, mean ± SD",[2]; [3],6.7 ± 44.55 m
same,"Change from baseline to Week 8 in 6MWD, mean ± SD",[2]; [3],4.5 ± 67.40 m
same,"Change from baseline to Week 12 in 6MWD, mean ± SD",[2]; [3],6.4 ± 65.74 m
same,"LS mean difference (macitentan-placebo), change in 6MWD to Week 12, ANCOVA sensitivity analysis",[2]; FAS,10.05 m
same,"Difference in LS means macitentan-placebo, change in 6MWD at Week 4","[2]; MMRM, FAS",23.02 m
same,"Difference in LS means macitentan-placebo, change in 6MWD at Week 8","[2]; MMRM, FAS",14.47 m
same,"Difference in LS means macitentan-placebo, change in 6MWD at Week 12","[2]; MMRM, FAS",9.73 m
same,"Difference in LS means macitentan-placebo, change in 6MWD, overall","[2]; MMRM, FAS, Weeks 4-12 overall",Overall: 15.74 m
same,Mean (±SD) change from baseline in 6MWD at Week 4,[2]; [4],7.0±45.62 m
same,Mean (±SD) change from baseline in 6MWD at Week 24,[2]; [4],22.0±42.55 m
same,Mean (±SD) change from macitentan baseline in 6MWD at Week 4,[2]; [5],11.5±31.67 m
same,Mean (±SD) change from macitentan baseline in 6MWD at Week 12,[2]; [5],13.9±39.27 m
same,Mean (±SD) observed difference at Week 12 (macitentan-placebo) in 6MWD,[2]; no imputation,18.4 m
same,Increase in walk distance from baseline to Week 24,"[2]; patients originally randomised to macitentan, followed into open-label period",20 m
